Test results reported in patent US7872018B2, “Compounds and methods for kinase modulation, and indications therefor” (Plexxikon, Inc., priority 2006, dated 2011).

How the values were obtained:
[1] = target: FGFR (Homo sapiens, UniProt P11362); experiment: FGFR kinase activity assay; assay type: biochemical; conditions: under the test conditions employed; read-out: IC50 toward kinase FGFR
[2] = target: Met (Homo sapiens, UniProt P08581); experiment: Met kinase activity assay; assay type: biochemical; conditions: under the test conditions employed; read-out: IC50 toward kinase Met
[3] = target: T1, Kit (Homo sapiens, UniProt P10721); experiment: c-kit biochemical assay (AlphaScreen or 33P-ATP); conditions: under the test conditions employed; read-out: IC50 toward kinase Kit
T1 construct: P1332.N6 BI PTP KIT M552-K948-X COD; made in house; host or cells: E. coli BL21(DE3)RIL, co-expressed with PTP1B
T1 sequence (P10721 552-948): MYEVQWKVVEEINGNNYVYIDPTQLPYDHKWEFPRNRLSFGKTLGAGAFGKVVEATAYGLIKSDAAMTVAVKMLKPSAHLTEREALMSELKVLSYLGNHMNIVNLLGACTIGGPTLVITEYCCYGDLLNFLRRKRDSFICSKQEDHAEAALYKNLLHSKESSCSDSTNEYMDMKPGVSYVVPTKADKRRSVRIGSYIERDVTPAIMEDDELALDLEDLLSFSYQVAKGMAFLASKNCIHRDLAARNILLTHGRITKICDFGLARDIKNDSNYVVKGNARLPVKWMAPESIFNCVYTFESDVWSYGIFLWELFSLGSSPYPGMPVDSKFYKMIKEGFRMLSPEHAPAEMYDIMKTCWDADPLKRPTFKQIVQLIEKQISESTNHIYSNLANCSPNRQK
Outline: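 Kinase activity read by AlphaScreen or 33P-ATP incorporation, with c-kit enzyme at 1 ng per sample. The enzyme was either commercial or a recombinant human kit construct made from a gene-synthesized coding sequence.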

[4] = target: T2, Fms (Homo sapiens, UniProt P07333); experiment: Fms biochemical assay (AlphaScreen or 33P-ATP); conditions: under the test conditions employed; read-out: IC50 toward kinase Fms
T2 construct: purchased Upstate Biotech 14-551
Text: Each sample was at 5% DMSO.

[5] = target: Kdr (Homo sapiens, UniProt P35968); experiment: Kdr kinase activity assay; assay type: biochemical; conditions: under the test conditions employed; read-out: IC50 toward kinase Kdr
[6] = target: B-Raf V600E/T529I (Homo sapiens, UniProt P15056, T529I/V600E); experiment: B-Raf V600E/T529I kinase activity assay; assay type: biochemical; conditions: under the test conditions employed; read-out: IC50 toward kinase B-Raf V600E/T529I
Sequence of B-Raf V600E/T529I (P15056 whole entry T529I/V600E): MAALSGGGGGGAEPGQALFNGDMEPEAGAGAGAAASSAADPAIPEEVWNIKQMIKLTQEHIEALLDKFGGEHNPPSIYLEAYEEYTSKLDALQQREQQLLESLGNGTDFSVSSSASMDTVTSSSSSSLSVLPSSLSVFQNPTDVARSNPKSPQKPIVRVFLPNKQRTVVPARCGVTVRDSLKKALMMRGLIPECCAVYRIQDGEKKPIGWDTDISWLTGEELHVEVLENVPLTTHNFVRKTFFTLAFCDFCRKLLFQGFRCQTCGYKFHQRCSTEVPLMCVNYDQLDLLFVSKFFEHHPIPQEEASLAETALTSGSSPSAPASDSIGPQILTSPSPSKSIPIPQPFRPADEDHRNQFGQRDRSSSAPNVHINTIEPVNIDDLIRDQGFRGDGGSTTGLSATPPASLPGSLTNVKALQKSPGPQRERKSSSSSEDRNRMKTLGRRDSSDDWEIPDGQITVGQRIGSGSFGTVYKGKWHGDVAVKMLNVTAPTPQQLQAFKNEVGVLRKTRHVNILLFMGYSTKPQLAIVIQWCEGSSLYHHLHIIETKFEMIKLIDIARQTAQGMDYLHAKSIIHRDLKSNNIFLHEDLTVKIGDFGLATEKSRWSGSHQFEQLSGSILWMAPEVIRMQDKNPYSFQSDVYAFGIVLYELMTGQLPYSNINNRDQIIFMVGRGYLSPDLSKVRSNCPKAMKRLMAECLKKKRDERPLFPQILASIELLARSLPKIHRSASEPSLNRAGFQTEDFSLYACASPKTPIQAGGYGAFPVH

[7] = target: B-Raf (Homo sapiens, UniProt P15056); experiment: B-Raf kinase activity assay; assay type: biochemical; conditions: under the test conditions employed; read-out: IC50 toward kinase B-Raf
Sequence of B-Raf (P15056 whole entry): as the sequence (P15056 whole entry T529I/V600E) above, with I529T, E600V counted along it

[8] = target: Fak (Homo sapiens, UniProt Q05397); experiment: Fak kinase activity assay; assay type: biochemical; conditions: under the test conditions employed; read-out: IC50 toward kinase Fak
[9] = target: B-Raf V600E (Homo sapiens, UniProt P15056, V600E); experiment: B-Raf V600E kinase activity assay; assay type: biochemical; conditions: under the test conditions employed; read-out: IC50 toward kinase B-Raf V600E
Sequence of B-Raf V600E (P15056 whole entry V600E): as the sequence (P15056 whole entry T529I/V600E) above, with I529T counted along it

[10] = target: c-Raf-1 (Homo sapiens, UniProt P04049); experiment: c-Raf-1 kinase activity assay; assay type: biochemical; conditions: under the test conditions employed; read-out: IC50 toward kinase c-Raf-1
Sequence of c-Raf-1 (P04049 whole entry): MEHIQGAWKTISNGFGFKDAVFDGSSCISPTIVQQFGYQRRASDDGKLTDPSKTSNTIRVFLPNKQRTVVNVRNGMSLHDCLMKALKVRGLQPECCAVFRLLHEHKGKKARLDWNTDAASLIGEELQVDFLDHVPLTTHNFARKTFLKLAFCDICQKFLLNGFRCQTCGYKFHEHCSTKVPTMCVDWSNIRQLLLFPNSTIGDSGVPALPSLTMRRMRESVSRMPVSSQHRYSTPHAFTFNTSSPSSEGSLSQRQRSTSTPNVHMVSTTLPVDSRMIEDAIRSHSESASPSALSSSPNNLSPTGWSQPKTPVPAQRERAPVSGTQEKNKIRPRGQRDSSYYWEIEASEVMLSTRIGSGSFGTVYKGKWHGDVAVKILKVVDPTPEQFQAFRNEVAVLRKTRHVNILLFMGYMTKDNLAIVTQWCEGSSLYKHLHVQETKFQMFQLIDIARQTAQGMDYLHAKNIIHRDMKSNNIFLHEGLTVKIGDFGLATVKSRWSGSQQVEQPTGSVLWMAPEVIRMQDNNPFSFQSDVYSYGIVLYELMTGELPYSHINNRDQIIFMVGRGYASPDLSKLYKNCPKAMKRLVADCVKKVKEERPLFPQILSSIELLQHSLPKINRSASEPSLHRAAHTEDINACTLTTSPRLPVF

[11] = target: Btk (Homo sapiens, UniProt Q06187); experiment: Btk kinase activity assay; assay type: biochemical; conditions: under the test conditions employed; read-out: IC50 toward kinase Btk
[12] = target: Src (Homo sapiens, UniProt P12931); experiment: Src kinase activity assay; assay type: biochemical; conditions: under the test conditions employed; read-out: IC50 toward kinase Src
Sequence of Src (P12931 whole entry): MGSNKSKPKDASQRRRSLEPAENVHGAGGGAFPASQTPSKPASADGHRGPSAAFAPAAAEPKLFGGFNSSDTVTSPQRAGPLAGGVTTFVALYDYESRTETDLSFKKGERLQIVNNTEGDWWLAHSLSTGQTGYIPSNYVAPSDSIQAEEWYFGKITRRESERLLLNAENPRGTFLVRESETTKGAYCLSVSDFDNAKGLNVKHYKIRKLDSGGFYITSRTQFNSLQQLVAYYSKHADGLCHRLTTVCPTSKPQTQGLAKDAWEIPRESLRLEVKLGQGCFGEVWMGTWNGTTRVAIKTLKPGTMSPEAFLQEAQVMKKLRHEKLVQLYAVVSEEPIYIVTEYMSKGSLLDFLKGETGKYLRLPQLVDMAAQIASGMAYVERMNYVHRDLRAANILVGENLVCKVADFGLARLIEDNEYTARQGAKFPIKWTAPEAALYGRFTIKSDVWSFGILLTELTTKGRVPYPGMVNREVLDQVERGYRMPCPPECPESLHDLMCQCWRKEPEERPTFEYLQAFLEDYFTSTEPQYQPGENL

[13] = target: Flt1 (Homo sapiens, UniProt P17948); experiment: Flt1 kinase activity assay; assay type: biochemical; conditions: under the test conditions employed; read-out: IC50 toward kinase Flt1
Sequence of Flt1 (P17948 27-1338): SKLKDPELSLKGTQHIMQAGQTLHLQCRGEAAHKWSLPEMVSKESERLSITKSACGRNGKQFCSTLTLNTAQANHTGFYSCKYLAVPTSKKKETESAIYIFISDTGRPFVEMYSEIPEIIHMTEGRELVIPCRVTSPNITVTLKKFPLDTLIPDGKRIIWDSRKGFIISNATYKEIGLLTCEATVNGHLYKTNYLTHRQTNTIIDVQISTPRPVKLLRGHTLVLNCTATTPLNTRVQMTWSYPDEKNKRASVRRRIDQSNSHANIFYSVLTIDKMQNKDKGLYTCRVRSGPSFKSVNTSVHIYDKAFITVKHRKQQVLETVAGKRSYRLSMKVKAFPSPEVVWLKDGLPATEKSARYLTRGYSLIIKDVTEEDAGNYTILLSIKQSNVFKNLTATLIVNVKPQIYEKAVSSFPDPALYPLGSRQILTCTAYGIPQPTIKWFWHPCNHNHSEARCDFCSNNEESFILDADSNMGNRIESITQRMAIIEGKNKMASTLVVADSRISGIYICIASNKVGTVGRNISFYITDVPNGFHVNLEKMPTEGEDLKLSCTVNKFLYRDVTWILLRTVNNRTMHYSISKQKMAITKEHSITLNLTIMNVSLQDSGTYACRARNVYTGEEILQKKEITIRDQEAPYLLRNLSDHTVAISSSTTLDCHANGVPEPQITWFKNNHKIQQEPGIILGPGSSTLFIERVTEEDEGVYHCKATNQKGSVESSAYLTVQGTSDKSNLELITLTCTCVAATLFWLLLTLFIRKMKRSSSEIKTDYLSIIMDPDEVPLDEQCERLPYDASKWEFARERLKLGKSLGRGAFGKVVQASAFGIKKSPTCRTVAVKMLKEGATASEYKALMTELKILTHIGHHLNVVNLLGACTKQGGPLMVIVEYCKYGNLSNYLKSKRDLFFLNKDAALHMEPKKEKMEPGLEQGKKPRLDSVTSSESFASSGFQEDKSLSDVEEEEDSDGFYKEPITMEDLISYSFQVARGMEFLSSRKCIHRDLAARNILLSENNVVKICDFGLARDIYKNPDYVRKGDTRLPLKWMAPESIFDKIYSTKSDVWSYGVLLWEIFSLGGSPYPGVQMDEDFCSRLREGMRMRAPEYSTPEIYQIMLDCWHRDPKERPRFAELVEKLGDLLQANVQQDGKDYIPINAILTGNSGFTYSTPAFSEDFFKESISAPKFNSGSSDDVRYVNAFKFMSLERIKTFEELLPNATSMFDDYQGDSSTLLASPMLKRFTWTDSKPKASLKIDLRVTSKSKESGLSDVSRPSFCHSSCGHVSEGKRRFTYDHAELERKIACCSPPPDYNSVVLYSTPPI

[14] = target: T3, TrkA (Homo sapiens, UniProt P04629); experiment: TrkA biochemical assay (AlphaScreen); conditions: under the test conditions employed; read-out: IC50 toward kinase TrkA
T3 construct: purchased Upstate Biotech 14-571
T3 sequence (P04629 33-796): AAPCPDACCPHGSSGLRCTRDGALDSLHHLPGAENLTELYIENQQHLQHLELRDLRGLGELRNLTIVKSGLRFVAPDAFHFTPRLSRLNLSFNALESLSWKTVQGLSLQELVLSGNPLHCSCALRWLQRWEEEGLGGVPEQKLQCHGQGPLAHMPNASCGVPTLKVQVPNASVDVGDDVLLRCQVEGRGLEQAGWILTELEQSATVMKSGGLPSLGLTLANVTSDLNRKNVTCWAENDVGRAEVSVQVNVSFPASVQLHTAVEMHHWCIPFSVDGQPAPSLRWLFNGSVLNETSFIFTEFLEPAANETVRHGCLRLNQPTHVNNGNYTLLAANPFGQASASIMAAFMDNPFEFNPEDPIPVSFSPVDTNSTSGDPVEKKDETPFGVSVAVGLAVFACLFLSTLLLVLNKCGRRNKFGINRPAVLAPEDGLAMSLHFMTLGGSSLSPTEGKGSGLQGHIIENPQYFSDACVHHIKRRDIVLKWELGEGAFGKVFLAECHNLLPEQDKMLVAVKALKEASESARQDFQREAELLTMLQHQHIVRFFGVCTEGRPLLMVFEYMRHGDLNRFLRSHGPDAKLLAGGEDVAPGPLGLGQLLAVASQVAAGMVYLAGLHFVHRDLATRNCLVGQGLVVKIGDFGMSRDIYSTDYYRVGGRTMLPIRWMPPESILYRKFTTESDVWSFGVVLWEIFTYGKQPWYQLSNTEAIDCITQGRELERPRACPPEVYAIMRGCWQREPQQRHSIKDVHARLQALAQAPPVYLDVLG
Description: Compounds tested were dissolved in DMSO (1 μL) and added to a white 384-well plate (Costar #3705). […] Each sample was at 5% DMSO. The plate was then incubated for 40 minutes at room temperature.

[15] = target: Jnk1 (Homo sapiens, UniProt P45983); experiment: Jnk1 kinase activity assay; assay type: biochemical; conditions: under the test conditions employed; read-out: IC50 toward kinase Jnk1
Sequence of Jnk1 (P45983 whole entry): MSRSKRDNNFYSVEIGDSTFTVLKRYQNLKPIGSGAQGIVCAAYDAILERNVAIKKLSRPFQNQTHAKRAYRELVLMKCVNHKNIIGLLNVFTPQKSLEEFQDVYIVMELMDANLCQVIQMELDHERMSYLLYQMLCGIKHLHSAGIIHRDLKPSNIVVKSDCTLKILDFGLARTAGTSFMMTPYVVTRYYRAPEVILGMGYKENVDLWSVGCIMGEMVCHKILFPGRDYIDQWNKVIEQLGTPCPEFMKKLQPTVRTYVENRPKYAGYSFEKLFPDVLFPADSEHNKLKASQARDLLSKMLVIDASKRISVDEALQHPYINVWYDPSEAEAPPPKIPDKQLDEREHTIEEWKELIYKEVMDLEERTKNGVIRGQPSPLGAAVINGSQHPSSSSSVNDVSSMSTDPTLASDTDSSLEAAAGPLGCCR

[16] = target: HGK (Homo sapiens, UniProt O95819); experiment: HGK (MAP4K4) biochemical assay (AlphaScreen); conditions: under the test conditions employed; read-out: IC50 toward kinase HGK
Outline: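 AlphaScreen kinase assay with 0.5 ng MAP4K4 per sample and 10 nM biotin-ERM substrate, reacted 40 min at room temperature. Stopped with EDTA buffer containing phospho-ERM antibody (1:1000) plus donor and protein A acceptor beads (1 μg/ml final); signal tracks substrate phosphorylation.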

Measured: IC50

COCCOc1ccc(F)c(Cc2c[nH]c3ncc(Cl)cc23)c1Cl [P-2157, 5-Chloro-3-[2-chloro-6-fluoro-3-(2-methoxy-ethoxy)-benzyl]-1H-pyrrolo[2,3-b]pyridine]
≤ 10 µM: [1] | [2] | [3] | [4] | [5]

Cn1cc(-c2cnc3[nH]cc(Cc4c(Cl)ccc(OCC(F)(F)F)c4Cl)c3c2)cn1 [P-2152, 3-[2,6-Dichloro-3-(2,2,2-trifluoro-ethoxy)-benzyl]-5-(1-methyl-1H-pyrazol-4-yl)-1H-pyrrolo[2,3-b]pyridine]
≤ 10 µM: [4] | [6] | [5]

COCCOc1ccc(F)c(C(=O)c2c[nH]c3ncc(Br)cc23)c1F [P-1453, (5-Bromo-1H-pyrrolo[2,3-b]pyridin-3-yl)-[2,6-difluoro-3-(2-methoxy-ethoxy)-phenyl]-methanone]
≤ 10 µM: [1] | [3] | [7] | [4] | [8] | [9] | [10]

Cn1cc(-c2cnc3[nH]cc(C(=O)c4c(F)ccc(OCC(F)(F)F)c4Cl)c3c2)cn1 [P-2145, [2-Chloro-6-fluoro-3-(2,2,2-trifluoro-ethoxy)-phenyl]-[5-(1-methyl-1H-pyrazol-4-yl)-1H-pyrrolo[2,3-b]pyridin-3-yl]-methanone]
≤ 10 µM: [11] | [12] | [3] | [13] | [7] | [14] | [4] | [5]

Fc1cc(Cc2c[nH]c3ncccc23)ccc1OCc1ccc(Cl)cc1 [P-1896, 3-[4-(4-Chloro-benzyloxy)-3-fluoro-benzyl]-1H-pyrrolo[2,3-b]pyridine]
≤ 10 µM: [15]

Cn1cc(-c2cnc3[nH]cc(Cc4cc(F)c(OCc5nc6ccccc6[nH]5)cc4F)c3c2)cn1 [P-2108, 2-{2,5-Difluoro-4-[5-(1-methyl-1H-pyrazol-4-yl)-1H-pyrrolo[2,3-b]pyridin-3-ylmethyl]-phenoxymethyl}-1H-benzoimidazole]
≤ 10 µM: [12] | [3] | [13] | [14] | [4] | [5]

Cn1cc(-c2cnc3[nH]cc(C(=O)c4c(Cl)ccc(OCC(F)(F)F)c4Cl)c3c2)cn1 [P-2151, [2,6-Dichloro-3-(2,2,2-trifluoro-ethoxy)-phenyl]-[5-(1-methyl-1H-pyrazol-4-yl)-1H-pyrrolo[2,3-b]pyridin-3-yl]-methanone]
≤ 10 µM: [12] | [3] | [13] | [7] | [4] | [6] | [5]

Fc1cc(Cc2c[nH]c3ncc(Cl)cc23)c(Cl)cc1OCc1cccnc1 [P-2156, 5-Chloro-3-[2-chloro-5-fluoro-4-(pyridin-3-ylmethoxy)-benzyl]-1H-pyrrolo[2,3-b]pyridine]
≤ 10 µM: [3] | [4] | [6] | [5]

Fc1ccc(OCc2ccccc2)c(F)c1Cc1c[nH]c2ncc(-c3cccnc3)cc12 [P-1455, 3-(3-Benzyloxy-2,6-difluoro-benzyl)-5-pyridin-3-yl-1H-pyrrolo[2,3-b]pyridine]
≤ 10 µM: [1] | [3] | [7] | [4] | [8] | [9] | [10]

Cn1cc(-c2cnc3[nH]cc(Cc4cc(Cl)c(OCc5nc6ccccc6[nH]5)cc4F)c3c2)cn1 [P-2117, 2-{2-Chloro-5-fluoro-4-[5-(1-methyl-1H-pyrazol-4-yl)-1H-pyrrolo[2,3-b]pyridin-3-ylmethyl]-phenoxymethyl}-1H-benzoimidazole]
≤ 10 µM: [12] | [3] | [13] | [14] | [4] | [5]

Cn1cc(-c2cnc3[nH]cc(Cc4cc(F)c(OCc5nc6ccccc6[nH]5)cc4Cl)c3c2)cn1 [P-2109, 2-{5-Chloro-2-fluoro-4-[5-(1-methyl-1H-pyrazol-4-yl)-1H-pyrrolo[2,3-b]pyridin-3-ylmethyl]-phenoxymethyl}-1H-benzoimidazole]
≤ 10 µM: [12] | [3] | [13] | [14] | [4] | [5] | [16]

COc1cc(Cc2c[nH]c3ncccc23)ccc1OCc1ccc(Cl)cc1 [P-1247, 3-(4-(4-chlorobenzyloxy)-3-methoxybenzyl)-1H-pyrrolo[2,3-b]pyridine]
≤ 10 µM: [12] | [3] | [13] | [7] | [4] | [8] | [9] | [10]

COc1cc(Cc2c[nH]c3ncccc23)c(Cl)cc1OCc1ccc(Cl)cc1F [P-2166, 3-[2-chloro-4-(4-chloro-2-fluoro-benzyloxy)-5-methoxy-benzyl]-1H-pyrrolo[2,3-b]pyridine]
≤ 10 µM: [4] | [6] | [5]

O=C(c1ccc(OCc2ccc(Cl)cc2)c(F)c1)c1c[nH]c2ncccc12 [P-1897, [4-(4-chloro-benzyloxy)-3-fluoro-phenyl]-(1H-pyrrolo[2,3-b]pyridin-3-yl)-methanone]
≤ 10 µM: [15]

COc1cnc2[nH]cc(C(=O)c3c(Cl)ccc(OCC(F)(F)F)c3Cl)c2c1 [P-2154, [2,6-Dichloro-3-(2,2,2-trifluoro-ethoxy)-phenyl]-(5-methoxy-1H-pyrrolo[2,3-b]pyridin-3-yl)-methanone]
≤ 10 µM: [13] | [4] | [6] | [5]
